Results published in ChEMBL document CHEMBL1201862, “PubChem BioAssay data set” (2004).
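Grown in 96-well plates, cells were treated for 48 hours with each compound at five concentrations. Insufficient inhibition: endpoint recorded as highest concentration tested. Here, GI50 denotes the concentration required for 50% inhibition of growth.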 The source made the active and inactive calls. Cut-off read from the data, not from the text of the source: active = GI50 up to about 1.1 µM and inactive = higher.

How the values were obtained:
Assay in all cases: inhibition of tumour cell growth, NCI panel, 48 h
SNB-19 = system: SNB-19
M19-MEL = system: M19-MEL
NCI-H522 = system: NCI-H522
OVCAR-4 = system: OVCAR-4
HCT-116 = system: HCT-116
SR = system: SR
HOP-18 = system: HOP-18
M14 = system: M14
NCI-H23 = system: NCI-H23
SK-OV-3 = system: SK-OV-3
OVCAR-8 = system: OVCAR-8
UACC-257 = system: UACC-257
KM12 = system: KM12
SF-539 = system: SF-539
UACC-62 = system: UACC-62
SK-MEL-2 = system: SK-MEL-2
HCT-15 = system: HCT-15
786-0 = system: 786-0
IGROV-1 = system: IGROV-1
SF-268 = system: SF-268
OVCAR-3 = system: OVCAR-3
Malme-3M = system: Malme-3M
HCC 2998 = system: HCC 2998
NCI-H460 = system: NCI-H460
DMS-273 = system: DMS-273
SF-295 = system: SF-295
A498 = system: A498
HT-29 = system: HT-29
EKVX = system: EKVX
COLO 205 = system: COLO 205
KM-20L2 = system: KM-20L2
NCI-H226 = system: NCI-H226
ACHN = system: ACHN
OVCAR-5 = system: OVCAR-5
TK-10 = system: TK-10
XF498 = system: XF498
DMS-114 = system: DMS-114
DLD-1 = system: DLD-1
SW-620 = system: SW-620
RXF 393 = system: RXF 393
SK-MEL-28 = system: SK-MEL-28
LXFL 529 = system: LXFL 529
UO-31 = system: UO-31
U-251 = system: U-251
SN12C = system: SN12C
CAKI-1 = system: CAKI-1
SNB-75 = system: SNB-75
HOP-62 = system: HOP-62
MOLT-4 = system: MOLT-4
A549 = system: A549
LOX IMVI = system: LOX IMVI
K562 = system: K562
RPMI-8226 = system: RPMI-8226
SNB-78 = system: SNB-78
HOP-92 = system: HOP-92
MCF7 = system: MCF7
NCI/ADR-RES = system: NCI/ADR-RES
SK-MEL-5 = system: SK-MEL-5
HL-60 = system: HL-60
CCRF-CEM = system: CCRF-CEM

Structure (SMILES): OC(c1ccccc1Br)(c1ccccc1Br)C(F)(F)F
- GI50 (SNB-19): > 10 µM (inactive)
- GI50 (M19-MEL): 23.9 µM (inactive)
- GI50 (NCI-H522): 11.6 µM (inactive)
- GI50 (OVCAR-4): 29.2 µM (inactive)
- GI50 (HCT-116): 19.7 µM (inactive)
- GI50 (SR): 24.6 µM (inactive)
- GI50 (HOP-18): 42.8 µM (inactive)
- GI50 (M14): 34.7 µM (inactive)
- GI50 (NCI-H23): 27.9 µM (inactive)
- GI50 (SK-OV-3): 36.5 µM (inactive)
- GI50 (OVCAR-8): 39.4 µM (inactive)
- GI50 (UACC-257): 37.8 µM (inactive)
- GI50 (KM12): 15.6 µM (inactive)
- GI50 (SF-539): 33.2 µM (inactive)
- GI50 (UACC-62): 26.8 µM (inactive)
- GI50 (SK-MEL-2): 18.5 µM (inactive)
- GI50 (HCT-15): 30.4 µM
- GI50 (786-0): 19.1 µM (inactive)
- GI50 (IGROV-1): 40.4 µM (inactive)
- GI50 (SF-268): 20.9 µM (inactive)
- GI50 (OVCAR-3): 26.9 µM (inactive)
- GI50 (Malme-3M): 24 µM (inactive)
- GI50 (HCC 2998): 0.322 µM (active)
- GI50 (NCI-H460): 27.7 µM (inactive)
- GI50 (DMS-273): 20.3 µM (inactive)
- GI50 (SF-295): 21.1 µM (inactive)
- GI50 (A498): 30.1 µM (inactive)
- GI50 (HT-29): 14.7 µM (inactive)
- GI50 (EKVX): 33.9 µM (inactive)
- GI50 (COLO 205): 18.2 µM (inactive)
- GI50 (KM-20L2): 24.5 µM (inactive)
- GI50 (NCI-H226): 10.9 µM (inactive)
- GI50 (ACHN): 20.1 µM (inactive)
- GI50 (OVCAR-5): 25.4 µM (inactive)
- GI50 (TK-10): 52.1 µM (inactive)
- GI50 (XF498): 23.1 µM (inactive)
- GI50 (DMS-114): 20.8 µM (inactive)
- GI50 (DLD-1): 37.5 µM (inactive)
- GI50 (SW-620): 19.4 µM (inactive)
- GI50 (RXF 393): 19.6 µM (inactive)
- GI50 (SK-MEL-28): 27.7 µM (inactive)
- GI50 (LXFL 529): 42.1 µM (inactive)
- GI50 (UO-31): 26.7 µM (inactive)
- GI50 (U-251): 18.6 µM (inactive)
- GI50 (SN12C): 19.1 µM (inactive)
- GI50 (CAKI-1): 48.1 µM (inactive)
- GI50 (SNB-75): 33 µM (inactive)
- GI50 (HOP-62): 28 µM (inactive)
- GI50 (MOLT-4): 14.9 µM (inactive)
- GI50 (A549): 34.1 µM (inactive)
- GI50 (LOX IMVI): 20.9 µM (inactive)

Structure (SMILES): O=C(O)NC(c1ccccc1)C(NC(=O)c1ccccc1)c1ccccc1 (stereo unspecified)
- GI50 (SNB-19): > 100 µM (inactive)
- GI50 (M19-MEL): > 100 µM (inactive)
- GI50 (K562): > 100 µM (inactive)
- GI50 (OVCAR-4): > 100 µM (inactive)
- GI50 (HCT-116): > 100 µM (inactive)
- GI50 (SR): > 100 µM (inactive)
- GI50 (RPMI-8226): > 100 µM (inactive)
- GI50 (HOP-18): > 100 µM (inactive)
- GI50 (NCI-H23): > 100 µM (inactive)
- GI50 (OVCAR-8): > 100 µM (inactive)
- GI50 (UACC-257): > 100 µM (inactive)
- GI50 (KM12): > 100 µM (inactive)
- GI50 (SF-539): > 100 µM (inactive)
- GI50 (UACC-62): > 100 µM (inactive)
- GI50 (SK-MEL-2): > 100 µM (inactive)
- GI50 (HCT-15): > 100 µM
- GI50 (786-0): > 100 µM (inactive)
- GI50 (IGROV-1): > 100 µM (inactive)
- GI50 (SF-268): > 100 µM (inactive)
- GI50 (OVCAR-3): > 100 µM (inactive)
- GI50 (Malme-3M): > 100 µM (inactive)
- GI50 (NCI-H460): > 100 µM (inactive)
- GI50 (SNB-78): > 100 µM (inactive)
- GI50 (SF-295): > 100 µM (inactive)
- GI50 (A498): > 100 µM (inactive)
- GI50 (HT-29): > 100 µM (inactive)
- GI50 (EKVX): > 100 µM (inactive)
- GI50 (COLO 205): > 100 µM (inactive)
- GI50 (KM-20L2): > 100 µM (inactive)
- GI50 (HOP-92): > 100 µM (inactive)
- GI50 (ACHN): > 100 µM (inactive)
- GI50 (OVCAR-5): > 100 µM (inactive)
- GI50 (TK-10): > 100 µM (inactive)
- GI50 (XF498): > 100 µM (inactive)
- GI50 (DMS-114): > 100 µM (inactive)
- GI50 (DLD-1): > 100 µM (inactive)
- GI50 (SW-620): > 100 µM (inactive)
- GI50 (RXF 393): > 100 µM (inactive)
- GI50 (SK-MEL-28): > 100 µM (inactive)
- GI50 (U-251): > 100 µM (inactive)
- GI50 (SN12C): > 100 µM (inactive)
- GI50 (CAKI-1): > 100 µM (inactive)
- GI50 (SNB-75): > 100 µM (inactive)
- GI50 (HOP-62): > 100 µM (inactive)
- GI50 (A549): > 100 µM (inactive)
- GI50 (LOX IMVI): 61.8 µM (inactive)

Structure (SMILES): C=C1C(=O)O[C@@H]2OC3(C)CCC4C(C)CCC1C42OO3 (stereo partly specified)
- GI50 (SNB-19): 14.7 µM (inactive)
- GI50 (M19-MEL): 3.49 µM (inactive)
- GI50 (K562): 2.07 µM (inactive)
- GI50 (NCI-H522): 1.7 µM (inactive)
- GI50 (OVCAR-4): 12.6 µM (inactive)
- GI50 (HCT-116): 1.53 µM (inactive)
- GI50 (RPMI-8226): 1.42 µM (inactive)
- GI50 (HOP-18): 16.5 µM (inactive)
- GI50 (NCI-H23): 5.6 µM (inactive)
- GI50 (SK-OV-3): 20.3 µM (inactive)
- GI50 (OVCAR-8): 3.09 µM (inactive)
- GI50 (UACC-257): 3.18 µM (inactive)
- GI50 (KM12): 3.38 µM (inactive)
- GI50 (SF-539): 2.48 µM (inactive)
- GI50 (UACC-62): 2.07 µM (inactive)
- GI50 (SK-MEL-2): 2.18 µM (inactive)
- GI50 (HCT-15): 1.87 µM
- GI50 (IGROV-1): 3.58 µM (inactive)
- GI50 (SF-268): 2.94 µM (inactive)
- GI50 (MCF7): 3.39 µM (inactive)
- GI50 (OVCAR-3): 3.41 µM (inactive)
- GI50 (NCI/ADR-RES): 2.42 µM (inactive)
- GI50 (HCC 2998): 13.1 µM (inactive)
- GI50 (NCI-H460): 2.38 µM (inactive)
- GI50 (DMS-273): 3.41 µM (inactive)
- GI50 (SF-295): 3.85 µM (inactive)
- GI50 (A498): 3.33 µM (inactive)
- GI50 (HT-29): 2.67 µM (inactive)
- GI50 (EKVX): 11.4 µM (inactive)
- GI50 (COLO 205): 3.46 µM (inactive)
- GI50 (HOP-92): 1.85 µM (inactive)
- GI50 (NCI-H226): 11.5 µM (inactive)
- GI50 (OVCAR-5): 15.7 µM (inactive)
- GI50 (XF498): 2.16 µM (inactive)
- GI50 (DLD-1): 1.93 µM (inactive)
- GI50 (SK-MEL-5): 4.88 µM (inactive)
- GI50 (SW-620): 3.05 µM (inactive)
- GI50 (SK-MEL-28): 11.5 µM (inactive)
- GI50 (UO-31): 9.84 µM (inactive)
- GI50 (U-251): 4.85 µM (inactive)
- GI50 (SN12C): 3.82 µM (inactive)
- GI50 (CAKI-1): 2.36 µM (inactive)
- GI50 (SNB-75): 3.59 µM (inactive)
- GI50 (HOP-62): 22.1 µM (inactive)
- GI50 (MOLT-4): 1.52 µM (inactive)
- GI50 (HL-60): 0.449 µM (active)
- GI50 (A549): 4.99 µM (inactive)
- GI50 (CCRF-CEM): 1.47 µM (inactive)
- GI50 (LOX IMVI): 2.36 µM (inactive)
